Measured values: PubChem BioAssay AID248 (DTP/NCI, 2004)
Inconclusive results and toxic doses are left out. No stated cut-off is given here; in the data, active means T/C of 150% or more; inactive means T/C below 125%.

System: L1210 leukemia ip in BDF1 mice, survival T/C
Experiment: NCI In Vivo Anticancer Drug Screen. Data for tumor model L1210 Leukemia (intraperitoneal) in B6D2F1 (BDF1) mice
Conditions: endpoint: mean survival time, higher = longer survival
In short: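 Transplantable tumor model; survival measured in treated vs vehicle control mice. Value = treated/control.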

[1] = dose: 5.0 mg/kg/injection, schedule: Q01DX001 (ip), vehicle: saline
[2] = dose: 10.0 mg/kg/injection, schedule: Q01DX001 (ip), vehicle: saline
[3] = dose: 100.0 mg/kg/injection, schedule: Q04DX003 (ip), vehicle: saline with Tween-80
[4] = dose: 200.0 mg/kg/injection, schedule: Q04DX003 (ip), vehicle: saline with Tween-80
[5] = dose: 400.0 mg/kg/injection, schedule: Q04DX003 (ip), vehicle: saline with Tween-80

Measured: T/C

Fc1c(F)c(F)c(Oc2c(F)c(F)c(F)c(F)c2Oc2c(F)c(F)c(F)c(F)c2F)c(F)c1F
inactive: dose: 10.0 mg/kg/injection, schedule: Q01DX009 (ip), vehicle: Klucel (hydroxypropylcellulose) (HPC) 96 % of control | dose: 25.0 mg/kg/injection, schedule: Q01DX009 (ip), vehicle: Klucel (hydroxypropylcellulose) (HPC) 96 % of control | dose: 37.5 mg/kg/injection, schedule: Q01DX009 (ip), vehicle: Klucel (hydroxypropylcellulose) (HPC) 98 % of control | dose: 150.0 mg/kg/injection, schedule: Q01DX009 (ip), vehicle: Klucel (hydroxypropylcellulose) (HPC) 97 % of control | dose: 300.0 mg/kg/injection, schedule: Q01DX009 (ip), vehicle: Klucel (hydroxypropylcellulose) (HPC) 99 % of control

OC1COC(n2cnc3c(=S)nc[nH]c32)CC1O (stereo not given)
inactive: [1] 100 % of control | [2] 103 % of control | dose: 20.0 mg/kg/injection, schedule: Q01DX001 (ip), vehicle: saline 100 % of control | dose: 40.0 mg/kg/injection, schedule: Q01DX001 (ip), vehicle: saline 95 % of control | dose: 100.0 mg/kg/injection, schedule: Q01DX001 (ip), vehicle: saline 107 % of control | dose: 200.0 mg/kg/injection, schedule: Q01DX001 (ip), vehicle: saline 108 % of control | dose: 400.0 mg/kg/injection, schedule: Q01DX001 (ip), vehicle: saline 124 % of control

FCCNCCF
inactive: [1] 101 % of control | [2] 112 % of control

CCCCC1=C(C)C(=O)OC1=O
inactive: [3] 95 % of control | [4] 95 % of control | [5] 103 % of control

FC(F)(F)c1ccc2nc(CI)c(CI)nc2c1
inactive: dose: 6.0 mg/kg/injection, schedule: Q01DX009 (ip), vehicle: other 98 % of control | dose: 12.0 mg/kg/injection, schedule: Q01DX009 (ip), vehicle: other 91 % of control | dose: 12.5 mg/kg/injection, schedule: Q01DX009 (ip), vehicle: saline with Tween-80 88 % of control | dose: 25.0 mg/kg/injection, schedule: Q01DX009 (ip), vehicle: other 95 % of control | dose: 25.0 mg/kg/injection, schedule: Q04DX003 (ip), vehicle: other 94 % of control | dose: 50.0 mg/kg/injection, schedule: Q04DX003 (ip), vehicle: other 87 % of control | dose: 100.0 mg/kg/injection, schedule: Q04DX003 (ip), vehicle: other 97 % of control

COc1ccccc1-n1c(C)nc2c1C(=O)c1ccccc1C2=O
inactive: [3] 96 % of control | [4] 93 % of control | [5] 96 % of control

COc1cc(/C=C2\CCNC2=O)ccc1OCc1ccccc1
inactive: dose: 50.0 mg/kg/injection, schedule: Q01DX001 (ip), vehicle: carboxymethylcellulose (CMC) 94 % of control | dose: 100.0 mg/kg/injection, schedule: Q01DX001 (ip), vehicle: carboxymethylcellulose (CMC) 105 % of control | dose: 200.0 mg/kg/injection, schedule: Q01DX001 (ip), vehicle: carboxymethylcellulose (CMC) 97 % of control | dose: 400.0 mg/kg/injection, schedule: Q01DX001 (ip), vehicle: carboxymethylcellulose (CMC) 103 % of control

COc1ccc(C)cc1NC(=O)SCc1ccccc1
inactive: dose: 100.0 mg/kg/injection, schedule: Q01DX009 (ip), vehicle: saline with Tween-80 100 % of control | dose: 200.0 mg/kg/injection, schedule: Q01DX009 (ip), vehicle: saline with Tween-80 101 % of control | dose: 400.0 mg/kg/injection, schedule: Q01DX009 (ip), vehicle: saline with Tween-80 94 % of control

CCOC(=O)/C=C/C(=O)O.[Fe]
inactive: dose: 100.0 mg/kg/injection, schedule: Q04DX003 (ip), vehicle: saline 101 % of control | dose: 200.0 mg/kg/injection, schedule: Q04DX003 (ip), vehicle: saline 95 % of control | dose: 400.0 mg/kg/injection, schedule: Q04DX003 (ip), vehicle: saline 101 % of control

O=[N+]([O-])C1CCCCCCCCCCC1
inactive: dose: 100.0 mg/kg/injection, schedule: Q01DX001 (ip), vehicle: other 96 % of control | dose: 200.0 mg/kg/injection, schedule: Q01DX001 (ip), vehicle: other 100 % of control | dose: 400.0 mg/kg/injection, schedule: Q01DX001 (ip), vehicle: other 96 % of control
